Experimental data taken from US20070099970A1, “Immunomodulatory compounds that target and inhibit the pY'binding site of tyrosene kinase p56 LCK SH2 domain” (priority 2005, published 2007).

Target: T1, recombinant GST Lck SH2 domain fusion protein (Homo sapiens, UniProt P06239)
T1 construct: recombinant GST Lck SH2 domain fusion protein; made in house
Assay: solid phase EIA inhibition assay: binding of GST Lck SH2 domain to CD3 ζ chain ITAM 2 phosphopeptide
Settings: assay example 1, stronger inhibitors >60% inhibition, weaker inhibitors <60% inhibition
Description: Compounds of the invention were obtained from commercial sources and were tested using a high-throughput Enzyme Immunoassay (EIA) developed to rapidly quantify inhibition.
Biological activities were measured using said EIA assay using 96 well medium binding EIA plates (Costar). Wells were coated with 100 μl of human CD3 ζ chain ITAM 2 phosphopeptide conjugated to BSA (˜10 pmole peptide equivalent) in PBS overnight at 4° C. and blocked with 300 μl of PBS containing 5% (wt/vol) powdered skim milk for 1 h at 37° C. After washing with PBS containing 1% Tween 20 (PBST), 3 times, 100 μl of precalibrated bacterial lysate containing recombinant GST Lck SH2 domain fusion protein was added in the presence or absence of test compounds and incubated for 1 h at room temperature. After 3 extensive washings with PBST, 100 μl of PBS containing HRP-conjugated rabbit anti-GST antibody was added and incubated for 1 h. After extensive washing with PBST, 100 μl of TMB substrate was added and absorbance at 620 nm was measured using a multiwell EIA plate reader (Anthos HTIII). The percent inhibition (% inhibition) was calculated based on the optical density (OD) using the formula: % inhibition=100−(ΔOD of test well/ΔOD of positive wells)×100, where ΔOD was calculated by subtracting background OD (average OD of negative wells) from the test as well as positive control wells. Error analysis was performed on two or more measurements.

T1 sequence (P06239 127-224 limits assumed): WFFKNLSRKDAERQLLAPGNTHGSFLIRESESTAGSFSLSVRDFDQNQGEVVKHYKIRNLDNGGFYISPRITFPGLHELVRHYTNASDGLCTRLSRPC

| Structure (SMILES) | inhibitory activity, in words |
| --- | --- |
| COC(=O)c1ccc(-c2ccc(/C=C3\SC(=O)N(CC(=O)Nc4ccc(C)cc4)C3=O)o2)c(C)c1 [276-8] | weak inhibitors |
| Cc1ccc(NC(=O)CN2C(=O)S/C(=C\c3ccccc3O)C2=O)cc1 [276-11] | lowest activity among the highly active compounds |
| Cc1ccc(NC(=O)CN2C(=O)S/C(=C/c3ccc(-c4ccc(Cl)c(C(=O)O)c4)o3)C2=O)cc1 [276-13] | stronger inhibitors |

Results, then the compound that gave them:

| inhibitory activity, in words | Structure (SMILES) |
| --- | --- |
| lower activity | Cc1cccc(NC(=O)CN2C(=O)S/C(=C\c3ccc(O)cc3)C2=O)c1 [276-6] |
| lower activity | Cc1ccc(NC(=O)CN2C(=O)S/C(=C\c3cccc(O)c3)C2=O)cc1 [276-14] |
| lower activity | Cc1ccc(NC(=O)CN2C(=O)S/C(=C\c3ccc(O)cc3)C2=O)cc1 [276-15] |
